# Results reported in US9260760B2, “Method for determining complete response to anticancer therapy” (Board of Regents, The University of Texas System, priority 2012, dated 2016).
# Where “and” joins values, the source holds several entries; their conditions need not be identical. Equal entries are not always repeated.
# Columns and labels:
# [1] = Study 2: treatment-related toxicity of XCEL (CTCAE version 3.0); assay type: in vivo, human
# Procedure: This retrospective study was approved by the institutional review board of The University of Texas M. D. Anderson Cancer Center. All sixty-six patients received concurrent capecitabine (Xeloda, Roche Nutley, N.J.) at mean daily dose 1000 mg/m^2/d bid for 14 days every 21 days or Monday-through Friday with radiation with daily celecoxib (CELEBREX®, Pfizer, N.Y.) at 200 mg PO b.i.d. from October 2000 to December 2003.
# All patients were subjected to routine clinical examinations, laboratory analyses, and computed tomography before receiving XCEL described previously. All patient data were to be independently audited and radiographic images depicting CR were reviewed and agreed upon by two independent radiologists. All 19 patients had pathological confirmation of metastatic cancer ( ). Treatment-related toxicity was graded using the National Institutes of Health's Common Terminology Criteria for Adverse Events, version 3.0. Tumor responses were evaluated using RECIST criteria with complete response defined as complete radiographic disappearance of measurable or evaluable disease and normalization of tumor marker. The death date was ascertained by searching (ssdi.genealogy.rootsweb.com) using social security numbers. The cutoff point for collection of survival was October 2005.
# [2] = test system: metastatic colorectal cancer; assay: Study 2: complete responders to XCEL; CR duration, PFS, OS, relapse; assay type: in vivo, human
# Excerpt: This retrospective study was approved by the institutional review board of The University of Texas M. D. Anderson Cancer Center. […] All patients were subjected to routine clinical examinations, laboratory analyses, and computed tomography before receiving XCEL described previously. All patient data were to be independently audited and radiographic images depicting CR were reviewed and agreed upon by two independent radiologists. All 19 patients had pathological confirmation of metastatic cancer ( ). Treatment-related toxicity was graded using the National Institutes of Health's Common Terminology Criteria for Adverse Events, version 3.0. Tumor responses were evaluated using RECIST criteria with complete response defined as complete radiographic disappearance of measurable or evaluable disease and normalization of tumor marker. The death date was ascertained by searching (ssdi.genealogy.rootsweb.com) using social security numbers. The cutoff point for collection of survival was October 2005. Continuous variables were summarized using the mean (±standard deviation) or the median (range). Categorical variables were summarized in frequency tables. Comparisons of important subgroups for these variables were made using the chi-square test or Fisher's exact test, as appropriate. Time to complete response was defined as time to start XCEL therapy to first documented radiographic complete response. Duration of complete response was defined as time to first CR to first recurrence or death. […] Patients were censored at the date of last follow-up if they had not progressed or died. Progression-free and overall survival distributions were summarized using the method of Kaplan and Meier. All response rates, progression-free survival and overall survival were calculated based on the 95% confidence interval (CI). Event chart was created using symbolized events versus time descriptively.
structure (smiles),measurement,setting,value
Cc1ccc(-c2cc(C(F)(F)F)nn2-c2ccc(S(N)(=O)=O)cc2)cc1 [XCEL],mean peak MCV increase before and after XCEL,[1]; compliant patients,10
same,Hematologic toxicities,[1]; in vivo,limited to grade 1 neutropenia and thrombocytopenia
same,grade ½ HFS,[1]; in vivo,28%
same,grade ½ diarrhea,[1]; in vivo,44%
same,grade ¾ lymphopenia,[1]; in vivo,28%
same,Median increase in mean corpuscular volume (MCV) before and after XCEL,[1]; range 5-20,10
same,relapse,[2]; all (eight relapses),41%
same,carcinoma embryonic antigen level,[2]; all nine patients with elevated CEA,normalization of CEA
same,Five-year OS,[2]; all patients,64%
same,Five-year PFS from XCEL,[2]; all patients,57%
same,median OS,[2]; all patients,54 months
same,CR rate,[2]; first-line responders,90%
same,first-line responders who achieved CR,[2]; in vivo,Eight of nine
same,median time to CR,[2]; in vivo,6.5 months
same,median time to relapse from CR date,[2]; in vivo,14 months
same,Five-year PFS from XCEL,[2]; none-surgical group / unresected CR patients,71% and 70%
same,Five-year OS,[2]; none-surgical patients / unresected CR patients,92%
same,confirmed pathological CR,[2]; one patient,5%
same,median duration of CR,[2]; resected patients,13 months
same,relapse,[2]; resected patients,67%
same,CR rate,"[2]; retroperitoneal nodal metastasis, with radiation",50%
same,patients who discontinued XCEL and remained in CR,"[2]; six of 14 patients, median follow-up of 36 months",43%
same,median duration of CR,[2]; unresected patients,not reached
same,relapse,[2]; unresected patients,29%
same,sustained CR rate,[2]; unresected patients,70%
same,CR site,"[2]; unresected patients, carcinomatosis",21%
same,CR site,"[2]; unresected patients, liver",36%
same,CR site,"[2]; unresected patients, nodal disease",43%
